The values that follow are results of earlier work, collected in patent publication US20130281394A1, “Chemosensory Receptor Ligand-Based Therapies” (ELCELYX THERAPEUTICS, INC., priority 2010, published 2013).

The first series has as its target T1, sweet receptor (Homo sapiens, UniProt Q7RTX0+Q8TE23).
T1 sequence (Q8TE23 20-839): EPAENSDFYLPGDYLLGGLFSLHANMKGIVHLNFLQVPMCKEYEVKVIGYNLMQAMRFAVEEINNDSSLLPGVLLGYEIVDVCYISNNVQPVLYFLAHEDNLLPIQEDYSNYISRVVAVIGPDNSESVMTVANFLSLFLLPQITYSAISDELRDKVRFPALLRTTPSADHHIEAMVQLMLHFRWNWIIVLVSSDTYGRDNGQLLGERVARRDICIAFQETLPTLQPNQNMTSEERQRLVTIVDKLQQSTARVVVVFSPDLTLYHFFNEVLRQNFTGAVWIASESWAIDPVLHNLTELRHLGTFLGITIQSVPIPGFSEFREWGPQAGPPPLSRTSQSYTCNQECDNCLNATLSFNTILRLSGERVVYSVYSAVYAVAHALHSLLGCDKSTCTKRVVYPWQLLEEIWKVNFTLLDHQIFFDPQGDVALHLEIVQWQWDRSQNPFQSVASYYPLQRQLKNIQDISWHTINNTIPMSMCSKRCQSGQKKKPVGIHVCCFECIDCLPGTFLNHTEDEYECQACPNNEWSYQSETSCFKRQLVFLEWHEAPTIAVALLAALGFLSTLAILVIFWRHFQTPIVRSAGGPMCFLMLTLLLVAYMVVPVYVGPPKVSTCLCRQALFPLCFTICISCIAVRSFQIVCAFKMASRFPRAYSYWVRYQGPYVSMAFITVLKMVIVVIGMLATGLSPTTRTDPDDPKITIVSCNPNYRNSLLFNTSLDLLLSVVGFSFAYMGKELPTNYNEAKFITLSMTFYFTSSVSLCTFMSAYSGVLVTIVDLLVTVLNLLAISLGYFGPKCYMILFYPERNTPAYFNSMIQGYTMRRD
T1 sequence (Q7RTX0 21-852): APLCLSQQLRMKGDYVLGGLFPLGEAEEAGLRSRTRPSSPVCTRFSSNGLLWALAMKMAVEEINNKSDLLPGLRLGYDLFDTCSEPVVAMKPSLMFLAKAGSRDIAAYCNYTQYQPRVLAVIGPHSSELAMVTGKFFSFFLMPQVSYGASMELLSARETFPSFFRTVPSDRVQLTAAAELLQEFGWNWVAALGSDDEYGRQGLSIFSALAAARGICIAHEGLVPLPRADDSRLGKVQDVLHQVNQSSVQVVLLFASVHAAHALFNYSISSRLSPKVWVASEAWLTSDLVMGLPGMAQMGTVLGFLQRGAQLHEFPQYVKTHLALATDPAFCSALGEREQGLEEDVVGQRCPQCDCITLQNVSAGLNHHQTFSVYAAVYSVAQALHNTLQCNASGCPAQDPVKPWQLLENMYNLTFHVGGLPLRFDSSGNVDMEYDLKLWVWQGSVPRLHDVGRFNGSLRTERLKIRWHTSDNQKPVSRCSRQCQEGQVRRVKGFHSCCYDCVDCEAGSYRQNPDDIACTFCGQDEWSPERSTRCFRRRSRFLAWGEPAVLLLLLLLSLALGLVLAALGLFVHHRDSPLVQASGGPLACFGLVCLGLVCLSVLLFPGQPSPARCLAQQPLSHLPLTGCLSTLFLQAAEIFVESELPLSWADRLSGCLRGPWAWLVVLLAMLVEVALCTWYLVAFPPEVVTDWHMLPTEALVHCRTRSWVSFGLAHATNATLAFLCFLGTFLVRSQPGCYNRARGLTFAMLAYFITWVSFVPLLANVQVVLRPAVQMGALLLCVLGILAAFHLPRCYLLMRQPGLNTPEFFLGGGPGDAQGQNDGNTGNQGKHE
Conditions: relative sweetness on a weight comparison basis to sucrose (= 1.0); ranges: varied with the concentration of sucrose.
With `C[C@@H]1O[C@@H](O[C@H]2O[C@@H]([C@@H](C)C3CC[C@@H]4[C@H]5CC(=O)[C@@H]6C[C@H](O[C@@H]7O[C@H](CO)[C@@H](O)[C@H](O)[C@H]7O[C@@H]7O[C@@H](C)[C@H](O)[C@@H](O)[C@H]7O)CC[C@]6(C)[C@@H]5CC[C@]34C)CC[C@@H]2C)[C@H](O)[C@H](O)[C@H]1O` (stereo partly drawn) [Osladin], the Sweetness/potency was 500.

Regarding `CC1(C(=O)O)C=C2C3CCC4C5(CO)CCC(OC6OC(C(=O)O)C(O)C(O)C6OC6OC(C(=O)O)C(O)C(O)C6O)C(C)(C)C5CCC4(C)C3(C)CCC2(C)CC1` (stereo not drawn) [Periandrin III], the Sweetness/potency is reported as 92.

Consider `CC1(C)[C@@H](O[C@@H]2O[C@H](C(=O)O)[C@@H](O)[C@H](O)[C@H]2O[C@@H]2O[C@H](C(=O)O)[C@@H](O)[C@H](O)[C@H]2O)CC[C@]2(C=O)[C@H]3CC[C@@H]4C5=C[C@@](C)(C(=O)O)CC[C@]5(C)CC[C@@]4(C)[C@]3(C)CC[C@@H]12` [Periandrin I], for which the Sweetness/potency is 90.

In the case of `CC1(C(=O)O)C=C2C3CCC4C5(C=O)CCC(OC6OC(C(=O)O)C(O)C(O)C6OC6OCC(O)C(O)C6O)C(C)(C)C5CCC4(C)C3(C)CCC2(C)CC1` (stereo not drawn) [Periandrin V], the Sweetness/potency is 220.

For `C=C(C)[C@@H]1CC=C(/C=N/O)CC1` [Perillartine], the Sweetness/potency was 370.

With `COc1ccc([C@H]2Cc3cccc(O)c3C(=O)O2)cc1O` [Phyllodulcin], the Sweetness/potency is listed as 400.

`C=C(C)C1CCC2(C)C(CC(OC3OCC(O)C(O)C3O)C3C(C(C)(O)C/C=C/C(C)(C)O)CCC32C)C1(C)CCC(=O)O` (stereo not drawn) [Pterocaryoside B]: the Sweetness/potency is reported as 100.

Turning to `C=C1C[C@@]23CC[C@H]4[C@@](C)(CCC[C@@]4(C)C(=O)O[C@@H]4O[C@H](CO)[C@@H](O)[C@H](O)[C@H]4O[C@@H]4O[C@H](CO)[C@@H](O)[C@H](O)[C@H]4O)[C@@H]2CC[C@]1(O[C@@H]1O[C@H](CO)[C@@H](O)[C@H](O[C@@H]2O[C@H](CO)[C@@H](O)[C@H](O)[C@H]2O)[C@H]1O[C@@H]1O[C@H](CO)[C@@H](O)[C@H](O)[C@H]1O)C3` [Rebaudioside D], the Sweetness/potency is recorded as 221.

As to `C=C1C[C@@]23CC[C@H]4[C@@](C)(CCC[C@@]4(C)C(=O)O[C@@H]4O[C@H](CO)[C@@H](O)[C@H](O)[C@H]4O[C@@H]4O[C@H](CO)[C@@H](O)[C@H](O)[C@H]4O)[C@@H]2CC[C@]1(O[C@@H]1O[C@H](CO)[C@@H](O)[C@H](O)[C@H]1O[C@@H]1O[C@H](CO)[C@@H](O)[C@H](O)[C@H]1O)C3` [Rebaudioside E], the Sweetness/potency is recorded as 174.

In the case of `C=C1C[C@@]23CC[C@H]4[C@@](C)(CCC[C@@]4(C)C(=O)O[C@@H]4O[C@H](CO)[C@@H](O)[C@H](O)[C@H]4O)[C@@H]2CC[C@]1(O[C@@H]1O[C@H](CO)[C@@H](O)[C@H](O)[C@H]1O)C3` [Rubusoside], the Sweetness/potency is recorded as 115.

Turning to `Oc1ccc([C@H]2Oc3c(c(O)cc4c3[C@H]3c5c(O)cc(O)cc5O[C@@](c5ccc(O)cc5)(O4)[C@@H]3O)[C@H](c3c(O)cc(O)c4c3O[C@H](c3ccc(O)cc3)[C@@H](O)C4)[C@H]2O)cc1` [Selligueain A], the Sweetness/potency is given as 35.

For `C[C@H](CC[C@@H](O[C@@H]1O[C@H](CO[C@@H]2O[C@H](CO)[C@@H](O)[C@H](O)[C@H]2O)[C@@H](O)[C@H](O)[C@H]1O[C@@H]1O[C@H](CO)[C@@H](O)[C@H](O)[C@H]1O)C(C)(C)O)[C@H]1CC[C@@]2(C)[C@@H]3CC=C4[C@@H](CC[C@H](O[C@@H]5O[C@H](CO)[C@@H](O)[C@H](O)[C@H]5O)C4(C)C)[C@]3(C)[C@H](O)C[C@]12C` [Siamenoside I], the Sweetness/potency is given as 563.

On to `C=C1C[C@@]23CC[C@H]4[C@@](C)(CCC[C@@]4(C)C(=O)O)[C@@H]2CC[C@]1(O[C@@H]1O[C@H](CO)[C@@H](O)[C@H](O)[C@H]1O[C@@H]1O[C@H](CO)[C@@H](O)[C@H](O)[C@H]1O)C3` [Steviolbioside], for which the Sweetness/potency was 90.

Consider `C=C1C[C@@]23CC[C@H]4[C@@](C)(CCC[C@@]4(C)C(=O)O[C@@H]4O[C@H](CO)[C@@H](O)[C@H](O)[C@H]4O)[C@@H]2CC[C@]1(O[C@@H]1O[C@H](CO)[C@@H](O)[C@H](O)[C@H]1O[C@@H]1O[C@H](CO)[C@@H](O)[C@H](O)[C@H]1O)C3` [Stevioside], for which the Sweetness/potency is 210.

As to `CC[C@@H](C)C(=O)O[C@@H](C)[C@]1(O)CC[C@]2(O)[C@@H]3CC[C@H]4C[C@@H](O[C@@H]5C[C@H](O)[C@H](O[C@H]6C[C@H](OC)[C@H](O[C@H]7C[C@@H](OC)[C@H](O[C@H]8C[C@@H](OC)[C@H](O[C@@H]9O[C@H](C)[C@@H](O[C@@H]%10O[C@H](CO)[C@@H](O)[C@H](O)[C@H]%10O)[C@H](OC)[C@H]9O)[C@@H](C)O8)[C@@H](C)O7)[C@@H](C)O6)[C@@H](C)O5)CC[C@]4(C)[C@H]3C[C@@H](OC(C)=O)[C@]12C` [Telosmoside A15], the Sweetness/potency is 1000.

For `O=C/C=C/c1ccccc1` [Trans-Cinnamaldehyde], the Sweetness/potency is 50.

Turning to `C/C=C/c1ccc(OC)cc1` [trans-Anethole], the Sweetness/potency was 13.

Regarding Albiziasaponin B, the Sweetness/potency was 600.

In the case of Baiyunoside, the Sweetness/potency was 500.

For the compound “Brazzein (QDKCKKVYENYPVSKCQLANQCNYDCKLDKHARSGECFYDEKRNLQCICDYCEY; UniProt P56552 1-54, looked up) [sweet protein from Pentadiplandra brazzeana Baillon]”, the Sweetness/potency was 2,000.

Consider Carnosifloside V, for which the Sweetness/potency is 51.

Consider Curculin, for which the Sweetness/potency is 550.

On to Cyclocarioside A, for which the Sweetness/potency is on record as 200.

As to Cyclocaryoside I, the Sweetness/potency is listed as 250.

For the compound Monellin, the Sweetness/potency is given as 3,000.

For Pentadin, the Sweetness/potency is listed as 500.

Take Periandrin II: the Sweetness/potency is 95.

As for Periandrin IV, the Sweetness/potency is on record as 85.

Regarding Polypodoside A, the Sweetness/potency is 600.

Turning to Pterocaryoside A, the Sweetness/potency is listed as 50.

On to Rebaudioside B, for which the Sweetness/potency was 150.

For Rebaudioside C, the Sweetness/potency was 30.

Turning to Scandenoside R6, the Sweetness/potency is 54.

Thaumatin: the Sweetness/potency is 1,600.

In the next series the test system is bitter receptor.
Conditions: not given
Consider `C=CCC(=NOS(=O)(=O)O)S[C@@H]1O[C@H](CO)[C@@H](O)[C@H](O)[C@H]1O` (stereo in doubt) [Sinigrin], for which the Taste quality result is “Bitter”.

Regarding `C[S+]([O-])CCCN=C=S` (stereo not drawn) [3-Methyl-sulfinylpropyl isothiocyanate], the Taste quality result is “Acrid mustard oils”.

Regarding `C[S+]([O-])CCCCN=C=S` (stereo not drawn) [4-Methylsulfinyl butyl isothiocyanate], the Taste quality entry was “Acrid mustard oils”.

Take `C=CCN=C=S` [Allyl-isothiocyanate]: the Taste quality result is reported as “Acrid mustard oils;”.

For `S=C=NCc1ccccc1` [Benzyl isothiocyanate], the Taste quality entry is “Acrid mustard oils;”.

Consider `O=c1c(-c2ccc(O)cc2)coc2cc(O[C@@H]3O[C@H](CO)[C@@H](O)[C@H](O)[C@H]3O)ccc12` [Daidzin], for which the Taste quality entry is reported as “Astringent”.

Regarding `O=C(O[C@@H]1Cc2c(O)cc(O)cc2O[C@@H]1c1ccc(O)c(O)c1)c1cc(O)c(O)c(O)c1` [Epicatechin gallate], the Taste quality result was “Bitter and astringent”.

Consider `O=C(O[C@@H]1Cc2c(O)cc(O)cc2O[C@@H]1c1cc(O)c(O)c(O)c1)c1cc(O)c(O)c(O)c1` [Epigallocatechin gallate], for which the Taste quality entry is given as “Bitter with sweet”.
